Results: PubChem BioAssay AID328 (DTP/NCI, 2004)
“And” between values parts separate entries of the source, which are not always exact repeats. Identical values can stand only once. Inconclusive results and toxic doses are left out.

System: BDF1 mice, P388 leukemia ip, median survival T/C
Test: NCI In Vivo Anticancer Drug Screen. Data for tumor model P388 Leukemia (intraperitoneal) in B6D2F1 (BDF1) mice
Details: endpoint: median survival time, higher = longer survival
Method in brief: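 Each value expresses how treatment altered survival: treated-mouse outcome over vehicle-mouse outcome, both groups bearing the transplanted tumour.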

[1] = dose: 100.0 mg/kg/injection, schedule: Q04DX003 (ip), vehicle: saline with Tween-80
[2] = dose: 200.0 mg/kg/injection, schedule: Q04DX003 (ip), vehicle: saline with Tween-80
[3] = dose: 25.0 mg/kg/injection, schedule: Q01DX009 (ip), vehicle: saline with Tween-80
[4] = dose: 50.0 mg/kg/injection, schedule: Q01DX009 (ip), vehicle: saline with Tween-80
[5] = dose: 100.0 mg/kg/injection, schedule: Q01DX009 (ip), vehicle: saline with Tween-80
[6] = dose: 200.0 mg/kg/injection, schedule: Q01DX009 (ip), vehicle: saline with Tween-80
[7] = dose: 400.0 mg/kg/injection, schedule: Q04DX003 (ip), vehicle: saline with Tween-80
[8] = dose: 6.25 mg/kg/injection, schedule: Q01DX009 (ip), vehicle: saline
[9] = dose: 6.25 mg/kg/injection, schedule: Q04DX003 (ip), vehicle: saline
[10] = dose: 12.5 mg/kg/injection, schedule: Q01DX009 (ip), vehicle: saline
[11] = dose: 12.5 mg/kg/injection, schedule: Q04DX003 (ip), vehicle: saline
[12] = dose: 25.0 mg/kg/injection, schedule: Q04DX003 (ip), vehicle: saline
[13] = dose: 200.0 mg/kg/injection, schedule: Q04DX003 (ip), vehicle: Klucel (hydroxypropylcellulose) (HPC)
[14] = dose: 400.0 mg/kg/injection, schedule: Q04DX003 (ip), vehicle: Klucel (hydroxypropylcellulose) (HPC)
[15] = dose: 100.0 mg/kg/injection, schedule: Q01DX009 (ip), vehicle: Klucel (hydroxypropylcellulose) (HPC)
[16] = dose: 100.0 mg/kg/injection, schedule: Q04DX003 (ip), vehicle: Klucel (hydroxypropylcellulose) (HPC)
[17] = dose: 200.0 mg/kg/injection, schedule: Q01DX009 (ip), vehicle: Klucel (hydroxypropylcellulose) (HPC)
[18] = dose: 50.0 mg/kg/injection, schedule: Q01DX009 (ip), vehicle: saline
[19] = dose: 50.0 mg/kg/injection, schedule: Q04DX003 (ip), vehicle: saline
[20] = dose: 100.0 mg/kg/injection, schedule: Q01DX001 (ip), vehicle: Klucel (hydroxypropylcellulose) (HPC)
[21] = dose: 200.0 mg/kg/injection, schedule: Q01DX001 (ip), vehicle: Klucel (hydroxypropylcellulose) (HPC)
[22] = dose: 400.0 mg/kg/injection, schedule: Q01DX001 (ip), vehicle: Klucel (hydroxypropylcellulose) (HPC)

N#CC(C#N)c1nc2cccnc2s1
T/C [1]: 109 % of control
T/C [2]: 93 % of control

O=C1O/C(=C2\OCc3ccccc32)c2ccccc21
T/C [3]: 100 % of control
T/C [4]: 98 % of control
T/C [5]: 98 % of control
T/C [6]: 96 % of control

COc1ccc(C2c3cc4c(c(OC)c3CC(CO)C2C(=O)O)OCO4)cc1OC (stereo not drawn)
T/C (dose: 9.38 mg/kg/injection, schedule: Q01DX010 (ip), vehicle: water): 95 % of control
T/C (dose: 18.75 mg/kg/injection, schedule: Q01DX010 (ip), vehicle: water): 90 % of control
T/C (dose: 37.5 mg/kg/injection, schedule: Q01DX010 (ip), vehicle: water): 90 % of control
T/C (dose: 50.0 mg/kg/injection, schedule: Q01DX001 (ip), vehicle: water): 110 % of control
T/C (dose: 75.0 mg/kg/injection, schedule: Q01DX010 (ip), vehicle: water): 110 % of control
T/C (dose: 100.0 mg/kg/injection, schedule: Q01DX001 (ip), vehicle: water): 100 % of control
T/C (dose: 150.0 mg/kg/injection, schedule: Q01DX010 (ip), vehicle: water): 115 % of control
T/C (dose: 200.0 mg/kg/injection, schedule: Q01DX001 (ip), vehicle: water): 110 % of control
T/C (dose: 400.0 mg/kg/injection, schedule: Q01DX001 (ip), vehicle: water): 110 % of control

[NH2-].[NH2-].[NH2-].[NH2-].[NH2-].[NH2-].[Ni]
T/C (dose: 6.25 mg/kg/injection, schedule: Q01DX001 (ip), vehicle: saline): 99 % of control
T/C (dose: 12.5 mg/kg/injection, schedule: Q01DX001 (ip), vehicle: saline): 103 % of control

COC(=O)C12N=NN(c3ccccc3)C1(C(=O)OC)C1CCC2C1 (stereo not drawn)
T/C [1]: 100 % of control
T/C [2]: 100 % of control
T/C [7]: 91 % of control

COc1ccc2c(c1)c1c(C)c3cnccc3c(C)c1n2CCCN
T/C (dose: 1.56 mg/kg/injection, schedule: Q01DX009 (ip), vehicle: saline): 95 % of control
T/C (dose: 3.12 mg/kg/injection, schedule: Q01DX009 (ip), vehicle: saline): 95 % of control
T/C (dose: 3.12 mg/kg/injection, schedule: Q04DX003 (ip), vehicle: saline): 112 % of control
T/C [8]: 111 % of control
T/C [9]: 121 % of control
T/C [10]: 105 % of control
T/C [11]: 107 % of control
T/C [12]: 101 % of control and 104 % of control

O=[N+]([O-])c1ccc(-[n+]2ccccc2)c([N+](=O)[O-])c1
T/C (dose: 37.5 mg/kg/injection, schedule: Q01DX009 (ip), vehicle: saline): 118 % of control
T/C (dose: 75.0 mg/kg/injection, schedule: Q01DX009 (ip), vehicle: saline): 122 % of control
T/C (dose: 150.0 mg/kg/injection, schedule: Q01DX009 (ip), vehicle: saline): 104 % of control

C1=NOC2c3ccc4ccccc4c3CCC12 (stereo not drawn)
T/C [13]: 87 % of control
T/C [14]: 95 % of control

O=S1(=O)C=Cc2ccccc21
T/C (dose: 50.0 mg/kg/injection, schedule: Q01DX009 (ip), vehicle: Klucel (hydroxypropylcellulose) (HPC)): 92 % of control
T/C [15]: 100 % of control
T/C [16]: 100 % of control
T/C [17]: 107 % of control
T/C [13]: 95 % of control

CNC(=O)NNc1ccccc1
T/C [13]: 115 % of control
T/C [14]: 115 % of control

O=c1/c(=C\C=C\c2ccccc2)sc2n1CCN=2
T/C [4]: 92 % of control
T/C [5]: 92 % of control
T/C [6]: 92 % of control

CC(C)OC(CCC#N)c1ccc(Cl)cc1 (stereo not drawn)
T/C (dose: 100.0 mg/kg/injection, schedule: Q04DX003 (ip), vehicle: other): 95 % of control
T/C (dose: 400.0 mg/kg/injection, schedule: Q04DX003 (ip), vehicle: other): 95 % of control

CC(CN(C)C)CN1c2ccccc2Sc2ccccc21 (stereo not drawn)
T/C [8]: 100 % of control
T/C [9]: 100 % of control
T/C [10]: 108 % of control and 90 % of control
T/C (dose: 12.5 mg/kg/injection, schedule: Q04DX003 (ip), vehicle: Klucel (hydroxypropylcellulose) (HPC)): 100 % of control
T/C (dose: 12.5 mg/kg/injection, schedule: Q04DX003 (ip), vehicle: saline with Tween-80): 110 % of control
T/C [11]: 108 % of control
T/C [3]: 109 % of control
T/C (dose: 25.0 mg/kg/injection, schedule: Q01DX009 (ip), vehicle: saline): 112 % of control and 109 % of control
T/C (dose: 25.0 mg/kg/injection, schedule: Q04DX003 (ip), vehicle: Klucel (hydroxypropylcellulose) (HPC)): 124 % of control
T/C [12]: 108 % of control
T/C [18]: 108 % of control
T/C (dose: 50.0 mg/kg/injection, schedule: Q04DX003 (ip), vehicle: Klucel (hydroxypropylcellulose) (HPC)): 124 % of control
T/C (dose: 50.0 mg/kg/injection, schedule: Q04DX003 (ip), vehicle: saline with Tween-80): 89 % of control
T/C [19]: 120 % of control

CCOC(=O)C(=CN1CCCC1)C(=O)OCC
T/C [1]: 100 % of control
T/C [2]: 100 % of control
T/C [7]: 109 % of control

c1ccc(-c2cscc2-c2ccccc2)cc1
T/C [12]: 97 % of control
T/C [18]: 93 % of control
T/C [19]: 108 % of control
T/C (dose: 100.0 mg/kg/injection, schedule: Q01DX009 (ip), vehicle: saline): 93 % of control
T/C (dose: 100.0 mg/kg/injection, schedule: Q04DX003 (ip), vehicle: saline): 100 % of control
T/C (dose: 200.0 mg/kg/injection, schedule: Q01DX009 (ip), vehicle: saline): 101 % of control
T/C (dose: 400.0 mg/kg/injection, schedule: Q01DX009 (ip), vehicle: saline): 93 % of control
T/C (dose: 400.0 mg/kg/injection, schedule: Q04DX003 (ip), vehicle: saline): 100 % of control

CCN1c2ccccc2C(Cl)(c2ccc(N(C)C)cc2)c2ccccc21
T/C (dose: 3.75 mg/kg/injection, schedule: Q01DX009 (ip), vehicle: saline): 118 % of control
T/C [9]: 100 % of control
T/C (dose: 7.5 mg/kg/injection, schedule: Q01DX009 (ip), vehicle: saline): 118 % of control
T/C [11]: 116 % of control
T/C [12]: 116 % of control

CCOC(=O)CCCl
T/C [20]: 95 % of control
T/C [16]: 100 % of control
T/C [21]: 104 % of control
T/C [13]: 104 % of control
T/C [22]: 91 % of control
T/C [14]: 100 % of control

Cc1ccc(NC(=O)c2ccc([N+](=O)[O-])cc2)c(C)c1
T/C [1]: 100 % of control
T/C [2]: 104 % of control
T/C [7]: 96 % of control

Clc1ccc(Oc2ccc(N3C=Nc4ccc(Oc5ccc(Cl)cc5)cc4C3)cc2)cc1
T/C (dose: 100.0 mg/kg/injection, schedule: Q04DX003 (ip), vehicle: alcohol): 100 % of control
T/C (dose: 200.0 mg/kg/injection, schedule: Q04DX003 (ip), vehicle: alcohol): 100 % of control
T/C (dose: 400.0 mg/kg/injection, schedule: Q04DX003 (ip), vehicle: alcohol): 95 % of control

Cc1ccc2ccccc2c1NCCC(=O)O
T/C [20]: 103 % of control
T/C [21]: 96 % of control
T/C [22]: 100 % of control

S=P(N1CCCC1)(N1CC1)N1CC1
T/C (dose: 5.0 mg/kg/injection, schedule: Q01DX009 (ip), vehicle: saline with Tween-80): 158 % of control
T/C (dose: 10.0 mg/kg/injection, schedule: Q01DX009 (ip), vehicle: saline with Tween-80): 104 % of control

CCOC(=O)c1cnn(-c2ccccc2)c1C
T/C [15]: 104 % of control
T/C [16]: 104 % of control
T/C [17]: 100 % of control
T/C [13]: 87 % of control
T/C (dose: 400.0 mg/kg/injection, schedule: Q01DX009 (ip), vehicle: Klucel (hydroxypropylcellulose) (HPC)): 90 % of control
T/C [14]: 104 % of control

CC(C(=O)c1ccccc1)C(Cl)c1ccccc1 (stereo not drawn)
T/C [4]: 95 % of control
T/C [5]: 94 % of control
T/C [1]: 89 % of control
T/C [6]: 86 % of control
T/C [2]: 89 % of control
T/C (dose: 400.0 mg/kg/injection, schedule: Q01DX009 (ip), vehicle: saline with Tween-80): 86 % of control
T/C [7]: 98 % of control

O=C1c2ccccc2C(=O)N1CC/C=C/c1ccc([N+](=O)[O-])cc1Cl
T/C [1]: 100 % of control
T/C [2]: 100 % of control
T/C [7]: 100 % of control
